Source: patent US20060025471A1, “Xanthenyl cubane analogs with activity at the metabotropic glutamate receptors” (priority 2002, published 2006)

Experiments:
[1] = test system: Cultured hippocampal pyramindal neurons; test: In vitro anoxia study, neuronal cell death; format: cell-based; details: 30 minutes anoxia; counts 24 hours post anoxic exposure
Text: The ability of a candidate compound to inhibit neuronal cell death can be examined using an in vitro anoxia study. […] A candidate compound can be administered to the neuronal cell culture at various time points prior to exposure to the anoxic condition to examine the prophylactic activity of the compound or during or after exposure to the anoxic condition to examine therapeutic activity of the compound. Suitable negative controls include, for example, buffer in place of the candidate compound.
The neuroprotective effects of a thioxanthenyl cubane (Compound 6) were examined using an in vitro anoxia study. Cultured hippocampal pyramindal neurons were exposed to anoxic conditions (oxygen free buffer) for 30 minutes. Twenty-four hours post anoxic exposure cell counts were conducted manually.

[2] = test system: rat global ischemia model; test: Rat global ischemia model; format: in vivo; details: 1 mg/kg intra-peritoneal post ischemic insult
Text: The neuroprotective effects of a candidate compound can also be evaluated in a number of in vivo animal models including, the rat global ischemia model. Briefly, two of the four cerebral arteries are permanently occluded and surgical silk is loosely placed around the remaining two cerebral arteries. Temporary tightening of the surgical silk leads to 4 vessel occlusion and temporary global ischemia. At various time points after ischemic insult the brain can be removed and examined for ischemic injury.
The neuroprotective effects of a thioxanthenyl cubane (Compound 6) were examined in vivo using the rat global ischemia model. Briefly, two of the four cerebral arteries are permanently occluded and surgical silk is loosely placed around the remaining two cerebral arteries. Temporary tightening of the surgical silk leads to 4 vessel occlusion and temporary global ischemia. Seven days post ischemic insult, the brain is removed and the CA1 region of the hippocampus, a region very suspectible to ischemic damage, is examined.

focal ischemia model = test: Starch microsphere infusion focal ischemia model; format: in vivo, rat
Procedure: Alternatively, the starch microsphere infusion focal ischemia model can be used. Briefly, starch microspheres are injected unilaterally into one of the carotid arteries. Blood flow is temporarily occluded on the injected side for approximately 30 minutes. Reperfusion occurs after the initial starch clot is resolved. At various time points after ischemic insult the brain can be removed and examined for ischemic injury.
The compounds of the present invention have been evaluated in a rat model of focal ischemia which is similar to that seen in strokes in humans. Briefly, starch microspheres are injected unilaterally into one of the carotid arteries. Blood flow is temporarily occluded on the injected side for approximately 30 minutes. Reperfusion occurs after the initial starch clot is resolved. The test compound is administered either prophylactically before vessel occlusion or therapeutically post vessel occlusion.
The neuroprotective effects of a thioxanthenyl cubane (Compound 6) were further examined using a starch microsphere infusion focal ischemia model. Briefly, starch microspheres are injected unilaterally into one of the carotid arteries. Blood flow is temporarily occluded on the injected side for approximately 30 minutes. Reperfusion occurs after the initial starch clot is resolved.
Compound 6 was intra-peritoneally administered at dosages of 0.1, 1.0, and 10 mg/kg either prophylactically or therapeutically. The prophylactic dose schedule included a dose of Compound 6 administered 30 minutes prior to ischemic insult followed by doses at 30 minutes and 3 hours post insult. For therapeutic administration, Compound 6 was administered 3 hours post insult only. […] In addition to providing substantial neuroprotection, Compound 6 reduced the incidence of seizures following ischemic insult in a dose-dependent manner.

fear potentiated startle = test: Fear potentiated startle model; format: in vivo, rats
Text: The fear potentiated startle model permits measurement of learned fear of a stimulus that has been paired with repeated foot shocks. The effect of a candidate compound on fear potentiated startle can be compared with a known standard such as diazepam and a negative control (such as buffer only). The fear potentiated startle test can be conducted at various time points following administration of a candidate compound.
The anxiolytic properties of a thioxanthenyl cubane (Compound 6) were examined using the fear potentiated startle model. This model permits measurement of learned fear of a stimulus that has been paired with repeated foot shocks. The effect of Compound 6 on fear potentiated startle was compared with the known standard, diazepam. All tests were run 30 min after intraperitoneal drug administration. Compound 6 was administered at 1.0, 3.0, 10 and 15 mg/kg in rats.
The oral bioavailability and efficacy of a thioxanthenyl cubane (Compound 6) was studied using the fear potentiated startle model. Compound 6 was administered by gavage at a dose of 12 mg/kg. Following a 90 minute period allowed for drug absorption, the oral efficacy was examined using the fear potentiated startle model. As shown in FIG. 8 oral Compound 6 was effective in reducing the fear potentiated startle model.
The onset and duration of a thioxanthenyl cubane (Compound 6) was studied using the fear potentiated startle model. Thioxanthenyl cubane was administered by gavage at a dose of 15 mg/kg. The effect of oral Compound 6 on fear potentiated startle was examined at 30 minutes, 1, 2, 4, 6 and 8 hours post drug administration.

fear induced freezing = test: Fear induced freezing model; format: in vivo, rat; details: diazepam at 3 mg/kg; for reduction in freezing, context alone: environment alone; for reduction in freezing, context plus tone: environment with conditioning sound
Text: The anxiolytic properties of a candidate compound can also be examined using the fear induced freezing model. Briefly, this test relies on the induction of a well known effect in rats when they are challenged. The rat is subjected to a mild shock associated with a sound which results in the animal becoming very still when expecting that shock. The effect of a candidate compound on fear induced freezing can be compared with a known standard such as diazepam and a negative control (such as buffer only). The fear induced freezing test can be conducted at various time points following administration of the candidate compound.
The anxiolytic properties of a thioxanthenyl cubane (Compound 6) were also examined using the fear induced freezing model. Briefly, this test relies on the induction of a well known effect in rats when they are challenged. The rat is subjected to a mild shock associated with a sound which results in the animal becoming very still when expecting that shock.
The animal is placed in its home cage for acclimatization before being placed back in the test environment in the presence or absence of test compound. The reduction in freezing is used as a measure of anxiolysis. […] The second paradigm (context plus tone) produces a larger and more difficult to overcome anxiety.

social interaction = test: Social interaction studies; format: in vivo, rat
Procedure: The effect of a candidate compound on social interaction can also be examined in rodents. Briefly, social interaction can be measured as follows: a strange intruder is introduced into the cage of an acclimatized treated rat and the number of times the rat either bites (# bites) or wrestles (# pins) the intruder is determined. The effect of a candidate compound on social interaction can be compared with a known standard such as diazepam and a negative control (such as buffer only). The social interaction test can be conducted at various time points following administration of the candidate compound.
The effect of a thioxanthenyl cubane (Compound 6) on social interaction was examined in rodents. Briefly, social interaction is measured as follows: a strange intruder is introduced into the cage of an acclimatized treated rat and the number of times the rat either bites (# bites) or wrestles (# pins) the intruder is determined. Compound 6 was administered at three doses and compared to saline and diazepam at 2 mg/kg.

elevated plus maze = test: Elevated plus maze test; format: in vivo, rat
Text: The anxiolytic properties of candidate compounds can be further evaluated using the elevated plus maze test. This test is dependent on the predisposition of rodents to remain in the dark and offers the choice between dark areas of the maze and the opportunity to explore lighted areas. The effect of a candidate compound on the elevated plus maze test can be compared with a known standard such as diazepam and a negative control (such as buffer only). The elevated maze plus test can be conducted at various time points following administration of the candidate compound.
To further examine the anxiolytic properties of a thioxanthenyl cubane (Compound 6), the elevated plus maze test was conducted. The elevated plus maze test is sensitive to benzodiazepine type anxiolytics while other anxiolytics such as the serotonin reuptake inhibitors (SSRIs) show poor efficacy in this test. This test is dependent on the predisposition of rodents to remain in the dark and offers the choice between dark areas of the maze and the opportunity to explore lighted areas.

[3] = Functional observational battery (side effect profile); format: in vivo
Text: The side effect profile for an intra-peritoneally administered thioxanthenyl cubane (Compound 6) was examined and compared to diazepam using functional observational battery which is a series of observational markers designed to indicate level of impairment. The greater the functional observational battery score, the greater the impairment.

[4] = Asymmetric grid test (impairment of motor function); format: in vivo; details: 4 mg/kg; compared to the null experiment
Procedure: To further examine the side effect of profile of Compound 6 the assymmetric grid test was conducted to measure impairment of motor function. Briefly, in the assymetric grid test the animal is placed on one side of a grid pattern, designed to challenge the animals motor function. On the other side of the grid is the animal's home cage or a reward. As the animal enters the grid it is monitored for mistakes by a camera placed horizontally in line with the grid. The camera records the number of forelimb and hindlimb intrusions through the grid and the higher the number, the greater the impairment.

## NC(CC1c2ccccc2Sc2ccccc21)(C(=O)O)C12C3C4C1C1C2C3C41C(=O)O (stereo not shown) [Compound 6, 4-carboxycubane-1-thioxanthenyl-1-glycine]
[1]
  number of living cells in anoxic cultures relative to control anoxic cultures: 2 to 3 times
[2]; 7 days
  ischemic damage to the CA1 region of the hippocampus vs untreated ischemic animals: reduction in ischemic damage
[2]; 7 days after the procedure
  reduction in cell death: greater than 50%
Focal ischemia model; 0.1, 1.0, 10 mg/kg intra-peritoneal, no obvious dose dependence
  neuroprotection in treated animals: Neuroprotection was observed in all animals
Focal ischemia model; 0.1, 1.0, 10 mg/kg intra-peritoneal, prophylactic or therapeutic schedule
  ischemic damage to the hippocampus, especially retrospenial and piriform cortices, vs untreated ischemic animals: reduction in ischemic damage
Focal ischemia model; 0.1-10 mg/kg intra-peritoneal, dose-dependent
  incidence of seizures following ischemic insult: reduced
Focal ischemia model; prophylactic or therapeutic treatment groups, 0.1, 1.0, 10 mg/kg
  difference in neuronal cell number between ipsilateral and contralateral sides of the CA1 region: no significant difference
Fear potentiated startle; gavage 12 mg/kg, 90 minute absorption period
  oral efficacy on fear potentiated startle: effective
Fear potentiated startle; gavage 15 mg/kg
  onset of effect on fear potentiated startle: 30 min
  time of maximum effect on fear potentiated startle: 4 h
  time of return of effect to base line: 8 h
Fear potentiated startle; intraperitoneal 1.0, 3.0, 10 and 15 mg/kg, 30 min after administration
  effect on fear potentiated startle: dose dependent reduction
Fear potentiated startle; intraperitoneal, highest dose (15 mg/kg)
  effect on fear potentiated startle at the highest dose: tendency to reverse the effect
Fear potentiated startle; intraperitoneal, 30 min after administration
  dose of apparent maximum reduction in fear potentiated startle: 3 mg/kg
Fear induced freezing
  reduction in freezing, context alone: effective in both scenarios
  reduction in freezing, context plus tone: effective in both scenarios
Social interaction; 10 mg/kg
  number of bites, compared with diazepam 2 mg/kg: equal reduction
  number of pins, compared with diazepam 2 mg/kg: equal reduction
Elevated plus maze; 1 mg/kg
  time spent in the exposed (open, light) area of the maze: only a tendency
[3]; in vivo
  impairment, functional observational battery score: this level of impairment was not observed

## CN1C(=O)CN=C(c2ccccc2)c2cc(Cl)ccc21 [diazepam, reference compound]
Fear potentiated startle; oral dose response (FIG. 9)
  effective oral dose level in fear potentiated startle: 7 mg/kg
Fear induced freezing
  reduction in freezing, context alone: effective
  reduction in freezing, context plus tone: only effective in the less stringent first paradigm
Social interaction; 2 mg/kg
  number of bites: clear reduction
  number of pins: clear reduction
Elevated plus maze; 2 mg/kg
  time spent in the exposed (open, light) area of the maze: clear increase
[3]; intra-peritoneal, high doses (Compound 6 very high doses)
  impairment, functional observational battery score: large degree of impairment
[4]
  number of forelimb and hindlimb mistakes: increases significantly
